Results as given in patent US6534447B1, “Herbicidal pyridine compounds” (BASF Aktiengesellschaft, priority 1999, dated 2003).

Experiments:
Type in all cases: in vivo
[1] = system: Abutilon theophrasti (ABUTH, velvetleaf); assay: Pre-emergence herbicidal evaluation; conditions: 3 weeks after treatment
Summary of the method: (§1)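 Soil-mixed seed sown in pots; spray immediately post-planting, aq. acetone, ~0.025–0.4 kg/ha; greenhouse, routine watering; visual score from 3 wk after treatment.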

[2] = system: Alopecurus myosuroides (ALOMY, black grass); assay: Pre-emergence herbicidal evaluation; conditions: 3 weeks after treatment
Summary of the method: as §1

[3] = system: Echinochloa grus galli (ECHCG, barnyard grass); assay: Pre-emergence herbicidal evaluation; conditions: 3 weeks after treatment
Summary of the method: as §1

[4] = system: Galium aparine (GALAP, cleaver); assay: Pre-emergence herbicidal evaluation; conditions: 3 weeks after treatment
Summary of the method: as §1

[5] = system: Ipomoea hederacea (IPOHE, morning glory); assay: Pre-emergence herbicidal evaluation; conditions: 3 weeks after treatment
Summary of the method: as §1

[6] = system: Matricaria inodora (MATIN, mayweed); assay: Pre-emergence herbicidal evaluation; conditions: 3 weeks after treatment
Summary of the method: as §1

[7] = system: Setaria viridis (SETVI, green foxtail); assay: Pre-emergence herbicidal evaluation; conditions: 3 weeks after treatment
Summary of the method: as §1

[8] = system: Stellaria media (STEME, chickweed); assay: Pre-emergence herbicidal evaluation; conditions: 3 weeks after treatment
Summary of the method: as §1

[9] = system: Glycine max (GLXMA, soyabeans); assay: Pre-emergence herbicidal evaluation (crop); conditions: 3 weeks after treatment
Summary of the method: as §1

[10] = system: Triticum aestivum (TRZAW, winter wheat); assay: Pre-emergence herbicidal evaluation (crop); conditions: 3 weeks after treatment
Summary of the method: as §1

Zea mays (ZEAMX, maize) = assay: Pre-emergence herbicidal evaluation (crop); conditions: 3 weeks after treatment
Summary of the method: as §1

[11] = system: Abutilon theophrasti (ABUTH, velvetleaf); assay: Post-emergence herbicidal evaluation; conditions: 3 weeks after treatment
Summary of the method: (§2)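 Injury is scored on a 0–9 scale, where 0 means growth as in untreated controls and 9 means death, from 3 weeks after spraying. Test compound, in acetone diluted with water, is applied at dosages equivalent to about 0.025 to 0.4 kg per hectare per pot, with plants then maintained in the greenhouse.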

[12] = system: Alopecurus myosuroides (ALOMY, black grass); assay: Post-emergence herbicidal evaluation; conditions: 3 weeks after treatment
Summary of the method: as §2

[13] = system: Dolium multiflorum (LOLMU, ryegrass); assay: Post-emergence herbicidal evaluation; conditions: rate 0.100 kg/ha, 3 weeks after treatment
Summary of the method: as §2

[14] = system: Echinochloa grus galli (ECHCG, barnyard grass); assay: Post-emergence herbicidal evaluation; conditions: 3 weeks after treatment
Summary of the method: as §2

[15] = system: Galium aparine (GALAP, cleaver); assay: Post-emergence herbicidal evaluation; conditions: 3 weeks after treatment
Summary of the method: as §2

[16] = system: Ipomoea hederacea (IPOHE, morning glory); assay: Post-emergence herbicidal evaluation; conditions: 3 weeks after treatment
Summary of the method: as §2

[17] = system: Matricaria inodora (MATIN, mayweed); assay: Post-emergence herbicidal evaluation; conditions: 3 weeks after treatment
Summary of the method: as §2

[18] = system: Setaria viridis (SETVI, green foxtail); assay: Post-emergence herbicidal evaluation; conditions: 3 weeks after treatment
Summary of the method: as §2

[19] = system: Stellaria media (STEME, chickweed); assay: Post-emergence herbicidal evaluation; conditions: 3 weeks after treatment
Summary of the method: as §2

eight weed species = assay: Pre-emergence herbicidal evaluation, overall weed control
Description: The pre-emergence herbicidal activity of the compounds of the present invention is exemplified by the following test in which the seeds of a variety of monocotyledonous and dicotyledonous plants are seperately mixed with potting soil and planted on top of approximately one inch of soil in separate post. After planting, the pots are sprayed with the selected aqueous acetone solution. containing test compound in sufficient quantity to provide the equivalent of about 0.025 to 0.4 kg per hectare of test compound per pot. The treated pots are then placed on greenhouse benches, watered and cared for in accordance with conventional greenhouse procedures. From 3 weeks after treatment, the tests are terminated and each pot is examined and rated according to the rating system set forth below.
Thus, there is evidence for the good potential of the compounds of the invention for excellent cross spectrum control of both grasses and broadleaf weeds in key crops.

Cc1cc(OCCCSC(F)(F)F)nc(Oc2cc(C(F)(F)F)nn2C)c1 [Example 4]
ABUTH rating ([1]; rate 0.025 kg/ha): 3 (3 - Moderate effect) | ABUTH rating ([1]; rate 0.100 kg/ha): 7 (7 - Good herbicidal effect) | ABUTH rating ([1]; rate 0.400 kg/ha): 9 (9 - Complete kill) | ALOMY rating ([2]; rate 0.025 kg/ha): 5 (5 - Definite injury) | ALOMY rating ([2]; rate 0.100 kg/ha): 8 (8 - Approaching complete kill) | ALOMY rating ([2]; rate 0.400 kg/ha): 8 (8 - Approaching complete kill) | ECHCG rating ([3]; rate 0.025 kg/ha): 3 (3 - Moderate effect) | ECHCG rating ([3]; rate 0.100 kg/ha): 8 (8 - Approaching complete kill) | ECHCG rating ([3]; rate 0.400 kg/ha): 9 (9 - Complete kill) | GALAP rating ([4]; rate 0.025 kg/ha): 4 (4 - Injury) | GALAP rating ([4]; rate 0.100 kg/ha): 8 (8 - Approaching complete kill) | GALAP rating ([4]; rate 0.400 kg/ha): 8 (8 - Approaching complete kill) | IPOHE rating ([5]; rate 0.025 kg/ha): 6 (6 - Herbicidal effect) | IPOHE rating ([5]; rate 0.100 kg/ha): 9 (9 - Complete kill) | IPOHE rating ([5]; rate 0.400 kg/ha): 9 (9 - Complete kill) | MATIN rating ([6]; rate 0.025 kg/ha): 8 (8 - Approaching complete kill) | MATIN rating ([6]; rate 0.100 kg/ha): 8 (8 - Approaching complete kill) | MATIN rating ([6]; rate 0.400 kg/ha): 8 (8 - Approaching complete kill) | SETVI rating ([7]; rate 0.025 kg/ha): 8 (8 - Approaching complete kill) | SETVI rating ([7]; rate 0.100 kg/ha): 9 (9 - Complete kill) | SETVI rating ([7]; rate 0.400 kg/ha): 9 (9 - Complete kill) | STEME rating ([8]; rate 0.025 kg/ha): 9 (9 - Complete kill) | STEME rating ([8]; rate 0.100 kg/ha): 9 (9 - Complete kill) | STEME rating ([8]; rate 0.400 kg/ha): 9 (9 - Complete kill) | GLXMA rating ([9]; rate 0.025 kg/ha): 1 (1 - Trace effect) | GLXMA rating ([9]; rate 0.100 kg/ha): 2 (2 - Slight effect) | GLXMA rating ([9]; rate 0.400 kg/ha): 3 (3 - Moderate effect) | TRZAW rating ([10]; rate 0.025 kg/ha): 0 (0 - No effect) | TRZAW rating ([10]; rate 0.100 kg/ha): 0 (0 - No effect) | TRZAW rating ([10]; rate 0.400 kg/ha): 2 (2 - Slight effect) | ZEAMX rating (Zea mays (ZEAMX, maize); rate 0.025 kg/ha): 2 (2 - Slight effect) | ZEAMX rating (Zea mays (ZEAMX, maize); rate 0.100 kg/ha): 2 (2 - Slight effect) | ZEAMX rating (Zea mays (ZEAMX, maize); rate 0.400 kg/ha): 4 (4 - Injury) | ABUTH rating ([11]; rate 0.025 kg/ha): 5 (5 - Definite injury) | ABUTH rating ([11]; rate 0.100 kg/ha): 7 (7 - Good herbicidal effect) | ABUTH rating ([11]; rate 0.400 kg/ha): 8 (8 - Approaching complete kill) | ALOMY rating ([12]; rate 0.025 kg/ha): 6 (6 - Herbicidal effect) | ALOMY rating ([12]; rate 0.100 kg/ha): 8 (8 - Approaching complete kill) | ALOMY rating ([12]; rate 0.400 kg/ha): 8 (8 - Approaching complete kill) | LOLMU rating [13]: 8 (8 - Approaching complete kill) | ECHCG rating ([14]; rate 0.025 kg/ha): 8 (8 - Approaching complete kill) | ECHCG rating ([14]; rate 0.100 kg/ha): 8 (8 - Approaching complete kill) | ECHCG rating ([14]; rate 0.400 kg/ha): 9 (9 - Complete kill) | GALAP rating ([15]; rate 0.025 kg/ha): 7 (7 - Good herbicidal effect) | GALAP rating ([15]; rate 0.100 kg/ha): 8 (8 - Approaching complete kill) | GALAP rating ([15]; rate 0.400 kg/ha): 9 (9 - Complete kill) | IPOHE rating ([16]; rate 0.025 kg/ha): 5 (5 - Definite injury) | IPOHE rating ([16]; rate 0.100 kg/ha): 7 (7 - Good herbicidal effect) | IPOHE rating ([16]; rate 0.400 kg/ha): 9 (9 - Complete kill) | MATIN rating ([17]; rate 0.025 kg/ha): 4 (4 - Injury) | MATIN rating ([17]; rate 0.100 kg/ha): 7 (7 - Good herbicidal effect) | MATIN rating ([17]; rate 0.400 kg/ha): 8 (8 - Approaching complete kill) | SETVI rating ([18]; rate 0.025 kg/ha): 5 (5 - Definite injury) | SETVI rating ([18]; rate 0.100 kg/ha): 7 (7 - Good herbicidal effect) | SETVI rating ([18]; rate 0.400 kg/ha): 9 (9 - Complete kill) | STEME rating ([19]; rate 0.025 kg/ha): 5 (5 - Definite injury) | STEME rating ([19]; rate 0.100 kg/ha): 5 (5 - Definite injury) | STEME rating ([19]; rate 0.400 kg/ha): 8 (8 - Approaching complete kill) | weed control (in words) (eight weed species; crop selective dose of 0.1 kg/ha): high levels of activity | weed control (in words) (eight weed species; wheat selective dose of 0.4 kg/ha): complete weed control
